The term logP denotes the decadic logarithm of the partition coefficient of the neutral form, usually between octanol and water. The low end stands for lower lipophilicity, the high end for higher lipophilicity.

Results on 23 molecules are retold here after the SangsterLogP compilation.

`CCCC(CCC)C(=O)OC1N=C(c2ccccc2)c2cc(Cl)ccc2NC1=O` (stereo not drawn) displayed a logP of 4.94.
Molecule `O=C1C(O)N=C(c2ccccc2Cl)c2cc(Cl)ccc2N1CCO` (stereo not drawn) displayed a logP of 2.16.
Then `O=C1C(O)N=C(c2ccccc2F)c2cc(Cl)ccc2N1CCO` (stereo not drawn), with 1.52; and `CCOC1N=C(c2ccccc2)c2cc(Cl)ccc2N(CCCl)C1=O` (stereo not drawn), with 3.53.
Regarding `CCN(CC)CCN1C(=O)C(O)N=C(c2ccccc2)c2cc(Cl)ccc21` (stereo not drawn), the lipophilicity (logP) worked out at 1.7.
Then `O=C(O)CCC(=O)OC1N=C(c2ccccc2)c2cc(Cl)ccc2NC1=O` (stereo not drawn), with 1.5; and `CCN(CC)CCN1C(=O)C(O)N=C(c2ccccc2Cl)c2cc(Cl)ccc21` (stereo not drawn), with 1.76; and `O=C1C(O)N=C(c2ccccc2)c2cc([N+](=O)[O-])ccc2N1CCO` (stereo not drawn), with 0.55.
The figure for `O=C1C[N+]([O-])=C(c2ccccc2)c2cc(Cl)ccc2N1CCO` is 0.82; for `CCOC1N=C(c2ccccc2)c2cc(Cl)ccc2N(CCO)C1=O` (stereo not drawn) it is 2.44.
Then `O=C1Nc2ccc(Cl)cc2C(c2ccccc2F)=NC1O` (stereo not drawn), with 1.81; and `CN1C(=O)C(O)N=C(c2ccccc2Cl)c2cc(Cl)ccc21` (stereo not drawn), with 2.5.
`COc1cc(C(=O)OC2N=C(c3ccccc3)c3cc(Cl)ccc3NC2=O)cc(OC)c1OC` (stereo not drawn) displayed a log partition coefficient (logP) of 3.75.
The figure for `CCN(CC)CCN1C(=O)C(O)N=C(c2ccccc2F)c2cc(Cl)ccc21` (stereo not drawn) is 1.89; for `CNC(=O)N1C(=O)CN=C(c2ccccc2)c2cc([N+](=O)[O-])ccc21` it is 1.76.
The figure for `O=C1CN=C(c2ccccc2)c2cc(Cl)ccc2N1CC(F)(F)F` is 3.97; for `CC(=O)OCCN1C(=O)C(OC(C)=O)N=C(c2ccccc2)c2cc(Cl)ccc21` (stereo not drawn) it is 2.74; for `O=C1C(O)N=C(c2ccccc2)c2cc(Cl)ccc2N1CCCO` (stereo not drawn) it is 1.68.
Then `CC(=O)OC1N=C(c2ccccc2)c2cc(Cl)ccc2N(CCO)C1=O` (stereo not drawn), with 2.45; and `CN1C(=O)C(O)N=C(c2ccccc2F)c2cc(Cl)ccc21` (stereo not drawn), with 2.09; and `O=C(O)CCC(=O)OCCN1C(=O)C[N+]([O-])=C(c2ccccc2)c2cc(Cl)ccc21`, with 0.36.
Turning to `CC(=O)OCCCN1C(=O)C(OC(C)=O)N=C(c2ccccc2)c2cc(Cl)ccc21` (stereo not drawn), the lipophilicity (logP) came out at 3.08.
As to `O=C1C(O)N=C(c2ccccc2)c2cc(Cl)ccc2N1CCO` (stereo not drawn), the logP was found to be 1.53.
